From ChEMBL document CHEMBL5233248, “Resveratrol - A comprehensive review of recent advances in anticancer drug design and development” (Eur J Med Chem, 2020)
Several values for one entry are separate records, joined by “and”; a condition that tells them apart may be missing. Equal values may be shown once. Blank lines part the entries; values can stand above or below the compound they belong to.

Experiments:
[1] = test system: HT-29; assay: Anticancer activity against human HT-29 cells assessed as cell growth inhibition incubated for 3 days by MTT assay; assay type: functional, cell-based; settings: HT-29, 72 h
[2] = test system: MCF7; assay: Anticancer activity against human MCF7 cells assessed as cell growth inhibition incubated for 3 days by MTT assay; assay type: functional, cell-based; settings: MCF7, 72 h
[3] = test system: HEK293; assay: Anticancer activity against human HEK293 cells assessed as cell growth inhibition incubated for 3 days by MTT assay; assay type: functional, cell-based; settings: HEK293, 72 h
[4] = Anticancer activity against human AZ-AHR cells assessed as cell growth inhibition incubate for 24 hrs by MTT assay; assay type: functional, cell-based
[5] = test system: ASPC1; assay: Anticancer activity against human ASPC1 cells assessed as cell growth inhibition incubated for 72 hrs by MTT assay; assay type: functional, cell-based; settings: ASPC1, 72 h
[6] = test system: BXPC-3; assay: Anticancer activity against human BXPC-3 cells assessed as cell growth inhibition incubated for 72 hrs by MTT assay; assay type: functional, cell-based; settings: BXPC-3, 72 h
[7] = test system: Capan-2; assay: Anticancer activity against human Capan-2 cells assessed as cell growth inhibition incubated for 72 hrs by MTT assay; assay type: functional, cell-based; settings: Capan-2, 72 h
[8] = test system: HCT-116; assay: Anticancer activity against human HCT-116 cells assessed as cell growth inhibition incubated for 5 days by SRB assay; assay type: functional, cell-based; settings: HCT-116, 120 h
[9] = test system: B16-F10; assay: Anti cancer activity against mouse B16-F10 cells assessed as cell growth inhibition incubated for 40 hrs by Almar Blue stained fluorescence-based assay; assay type: functional; settings: B16-F10, 40 h
[10] = test system: HT-29; assay: Anticancer activity against human HT-29 cells assessed as cell growth inhibition incubated for 24 hrs by MTT assay; assay type: functional, cell-based; settings: ht-29
[11] = test system: HepG2; assay: Anticancer activity against human HepG2 cells assessed as cell growth inhibition incubated for 24 hrs by MTT assay; assay type: functional, cell-based; settings: HepG2, 24 h
[12] = test system: SK-BR-3; assay: Anticancer activity against human SK-BR-3 cells assessed as cell growth inhibition incubated for 24 hrs by MTT assay; assay type: functional, cell-based; settings: SK-BR-3, 24 h
[13] = test system: U-251; assay: Anticancer activity against human U-251MG cells assessed as cell growth inhibition by CyQuant assay; assay type: functional, cell-based
[14] = test system: MDA-MB-231; assay: Anticancer activity against human MDA-MB-231 cells assessed as cell growth inhibition by CyQuant assay; assay type: functional, cell-based
[15] = test system: MCF7; assay: Anticancer activity against human MCF7 cells assessed as cell growth inhibition by CyQuant assay; assay type: functional, cell-based
[16] = test system: PANC-1; assay: Anticancer activity against human PANC-1 cells assessed as cell growth inhibition by CyQuant assay; assay type: functional, cell-based
[17] = Cytotoxicity against mouse NIH3T3 cells assessed as cell growth inhibition by CyQuant assay; assay type: toxicity, cell-based
[18] = test system: HeLa; assay: Anticancer activity against human HeLa cells assessed as cell growth inhibition measured after 72 hrs by MTT assay; assay type: functional, cell-based; settings: Homo sapiens, HeLa, 72 h; read-out: IC50
[19] = test system: A549; assay: Anticancer activity against human A549 cells assessed as cell growth inhibition measured after 72 hrs by MTT assay; assay type: functional, cell-based; settings: Homo sapiens, A549, 72 h
[20] = Anticancer activity against Lung adenocarcinoma cell line assessed as cell growth inhibition measured after 72 hrs by MTT assay; assay type: functional, cell-based; settings: Lung adenocarcinoma cell line, 72 h
[21] = test system: MCF7; assay: Anticancer activity against human MCF7 cells assessed as cell growth inhibition incubated for 48 hrs by MTS assay; assay type: functional, cell-based; settings: MCF7, 48 h
[22] = Cytotoxicity activity against human CCD-1059Sk cells assessed as cell growth inhibition incubated for 48 hrs by MTS assay; assay type: toxicity, cell-based
[23] = in vitro; settings: human, CCD-1059Sk cells and MCF7 cells
Description: Selectivity index, ratio of IC50 for cytotoxicity against CCD-1059Sk cells to IC50 for antiproliferative activity against MCF7 cells

[24] = test system: B16-F10; assay: Anti cancer activity against mouse B16-F10 cells assessed as cell growth inhibition incubated for 40 hrs by Almar Blue stained fluorescence-based assay relative to control; assay type: functional
[25] = test system: PANC-1; assay: Anticancer activity against human PANC-1 cells assessed as cell growth inhibition incubated for 48 hrs by SRB assay; assay type: functional; settings: Homo sapiens, PANC-1, 48 h

Compound: O=S(=O)(O)Oc1ccc(/C=C/c2cc(O)cc(OS(=O)(=O)O)c2)cc1
IC50 [1]: 56 µM
IC50 [2]: 26 µM
IC50 [3]: > 100 µM

Compound: Oc1cc(O)cc(/C=C\c2ccc(O)c(O)c2)c1
IC50 [4]: 7.8 µM

Compound: OC[C@H]1O[C@@H](Oc2cc(/C=C/c3ccc(O)cc3)cc(O[C@@H]3O[C@H](CO)[C@@H](O)[C@H](O)[C@H]3O)c2)[C@H](O)[C@@H](O)[C@@H]1O
IC50 [1]: 24 µM
IC50 [2]: 72 µM
IC50 [3]: > 100 µM

Compound: CCCCCCCC(=O)OC[C@H]1O[C@@H](Oc2cc(O)cc(/C=C/c3ccc(O)cc3)c2)[C@H](O)[C@@H](O)[C@@H]1O
IC50 [1]: 39 µM
IC50 [2]: 52 µM
IC50 [3]: > 100 µM

Compound: Nc1ccc(/C=C/c2ccc(O)cc2)cc1
IC50 [5]: 3.23 µM
IC50 [6]: 22.5 µM
IC50 [7]: 3.03 µM

Compound: Oc1ccccc1/C=N/c1ccccc1O
IC50 [8]: 600 nM

Compound: COC(=O)c1cc(/C=C/c2cc(O)cc(O)c2)ccc1O
IC50 [10]: 44.3 µM and 18.9 µM
IC50 [11]: 18.9 µM
IC50 [12]: 11.3 µM

Compound: Oc1cc(O)cc(/C=C/c2ccc(OCc3ccccc3)cc2)c1
IC50 [18]: 8.25 µM
IC50 [19]: 26.3 µM
IC50 [20]: 9.43 µM

Compound: COc1ccc(/C=N/NC(=O)/C=C/c2ccc(O)c(OC)c2)cc1
IC50 [21]: 19.1 µM
IC50 at 48 h [22]: 158 µM
selectivity ratio [23]: 3.9

Compound: COc1cc(/C=C/C(=O)N/N=C/c2ccc(O)c(OC)c2)ccc1O
IC50 [21]: 129 µM
IC50 at 48 h [22]: 74.6 µM
selectivity ratio [23]: 1.73

Compound: COc1ccc(/C=C\c2cc(OC)c(OC)c(OC)c2)cc1
IC50 [9]: 1000 nM
inhibition (INH) [24]: 80%

Compound: COc1cc(/C=C/c2ccc(NC(=O)CSc3nnc(-c4ccc(C(F)(F)F)cc4)o3)cc2)cc(OC)c1
GI50 [25]: 64 nM

Compound: COc1cc(/C=C/c2ccc(NC(=O)CSc3nnc(-c4c(F)cccc4F)o3)cc2)cc(OC)c1
GI50 [25]: 64 nM

Compound: COc1ccc(/C=C\c2cc(OC)c(OC)c(OC)c2)c(OC)c1
IC50 [9]: 1000 nM

Compound: COc1cc(/C=C/c2ccc(NC(=O)CSc3nnc(-c4ccc(C)cc4)o3)cc2)cc(OC)c1
GI50 [25]: 64 nM

Compound: O=S(=O)(Oc1ccc(/C=C/c2cc(O)cc(OS(=O)(=O)c3ccccc3)c2)cc1)c1ccccc1
IC50 [18]: 6.48 µM
IC50 [19]: 4.9 µM
IC50 [20]: 5.55 µM

The next lines start with results.

IC50 [1]: 115 µM
IC50 [2]: 17 µM
Compound: O=S(=O)(O)Oc1cc(O)cc(/C=C/c2ccc(O)cc2)c1
IC50 [3]: > 100 µM

IC50 [9]: 1000 nM
Compound: COc1ccc(/C=C/c2ccc(OC)c(OC)c2)cc1

IC50 [13]: 6.7 µM
IC50 [14]: 18.5 µM
IC50 [15]: 10.8 µM
IC50 [16]: 18.1 µM
Compound: COc1cc(/C=C/c2ccc(OC(C)=O)cc2)cc(OC)c1
IC50 [17]: > 20 µM

IC50 [18]: 5.1 µM
IC50 [19]: 5.1 µM
Compound: CC(C)C(=O)Oc1ccc(/C=C/c2cc(OC(=O)C(C)C)cc(OC(=O)C(C)C)c2)cc1
IC50 [20]: 5.1 µM

IC50 [18]: 4.9 µM
IC50 [19]: 4.9 µM
Compound: CC(C)CC(=O)Oc1ccc(/C=C/c2cc(OC(=O)CC(C)C)cc(OC(=O)CC(C)C)c2)cc1
IC50 [20]: 4.9 µM

IC50 [1]: 45 µM
IC50 [2]: 78 µM
Compound: COc1cc(/C=C/c2ccc(O[C@@H]3O[C@H](CO)[C@@H](O)[C@H](O)[C@H]3O)cc2)cc(O[C@@H]2O[C@H](CO)[C@@H](O)[C@H](O)[C@H]2O)c1
IC50 [3]: > 100 µM

GI50 [25]: 64 nM
Compound: COc1cc(/C=C/c2ccc(NC(=O)CSc3nnc(-c4cnccn4)o3)cc2)cc(OC)c1

GI50 [25]: 64 nM
Compound: COc1cc(/C=C/c2ccc(OC(=O)CSc3nnc(-c4ccccc4F)o3)cc2)cc(OC)c1

GI50 [25]: 64 nM
Compound: COc1cc(/C=C/c2ccc(OC(=O)CSc3nnc(-c4ccc(C)cc4)o3)cc2)cc(OC)c1
